Source: patent US12725802B2, “Aqueous rechargeable battery including organic positive active material” (Seoul National University R&DB Foundation, priority 2021, dated 2026)
Values after ≈ are worked out from the molar mass of the structure shown. Like-named read-outs stand apart in the source and are kept apart here.

How the values were obtained:
[1] = Visual observation of the solubility of DMPZ in various solvents (color change, naked eye); type: physicochemical; conditions: FIG. 3; for solubility: organic solvent or mixture, read-out: solubility (concentration dissolved)
Excerpt: DMPZ was respectively dissolved in various solvents, and color changes in the solutions were examined with the naked eye to evaluate dissolution degrees.

[2] = Analysis of solubility of positive active material in the electrolyte during cycle (electrode washed with new electrolyte, color; UV-visible spectroscopy); type: physicochemical; conditions: FIG. 7
Description: Each cell of Comparative Example 1 and Examples 1 and 2 was checked regarding how much the positive active materials were dissolved when the electrodes were taken out during the charge and washed with a new electrolyte, and the results are shown in FIG. 7.
FIG. 8 is a graph quantitatively analyzing amounts of DMPZ dissolved in each electrolyte of Comparative Example 1 and Examples 1 and 2. The cycled DMPZ electrode was re-wetted in the electrolyte, and ultraviolet (UV)-visible ray spectroscopy was performed with respect to solutions in each of the DMPZ^+ and DMPZ^2+ states to measure areas of an absorption spectrum and thus obtain each amount of DMPZ^+ and DMPZ^2+ dissolved out in the electrolyte. In FIG. 8, a vertical axis indicates the DMPZ state according to SOC, while a horizontal axis indicates a weight change as solubility (%). In FIG. 8, Comparative Example 1 is shown on the right, Example 1 is in the middle, and Example 2 is on the left.

CN1c2ccccc2N(C)c2ccccc21 [DMPZ, 5,10-dihydro-5,10-dimethylphenazine]
solubility ([1]; dimethyl carbonate (DMC)): ≥ 100 mM | solubility ([1]; propylene carbonate (PC)): ~20 mM (≈ 4.21 mg/mL) | solubility ([1]; tetraethylene glycol dimethyl ether (TEGDME)): ≥ 100 mM | solubility (dissolution) ([1]; water solvent): not dissolved in the water solvent at all | solubility in the electrolyte during the cycles ([2]; Comparative Example 1 electrolyte: 1 M NaClO4 in TEGDME, DMPZ, DMPZ+ (SOC 50) and DMPZ2+ (SOC 100)): high solubility | solubility in the electrolyte during the cycles ([2]; Example 1 electrolyte: 1 m NaClO4 and 0.5 m Zn(CF3SO3)2 in water, charged DMPZ (DMPZ+, DMPZ2+)): slightly dissolved | solubility in the electrolyte during the cycles ([2]; Example 2 electrolyte: 17 m NaClO4 and 0.5 m Zn(CF3SO3)2 in water, DMPZ, DMPZ+ and DMPZ2+): not dissolved at all
